From patent US8835466B2, “Synthesis and uses of pyroglutamic acid derivatives” (Prodimed, S.A., priority 2006, dated 2014)

Experiments:
[1] = test system: Renca cells (renal cell carcinoma); assay: Effect of isomers on in vivo tumour growth in mice challenged with Renca cells (Example 7); parameters: species or system Balb/c mice; settings: for Tumour surface, overall values (Mean) / Tumour surface, overall values (Median) / Tumour volume, overall values (Mean) / Tumour volume, overall values (Median): 260 ng/mouse i.p. days 6, 7, 14
From the text: This assay was made in order to check the effect of each stereoisomer on in vivo tumour growth in mice challenged with Renca cells. Their effect was compared with placebo. The stereoisomers assayed were:
Renca is a renal cell carcinoma originated in Balb/c mouse strain, and therefore syngeneic in mice with Balb/c genetic background [Melder R J et al., Cancer Immunol. Immunother., 2005, 54:535-547; Felluga B et al., 1969, J. Natl. Cancer Inst. 43:319-333]. Renca is considered a moderate immunogenic tumour and used as suitable model for testing immunointervention approaches [Salup R R, et al., 1992, The Journal of Urology, 147:1120-1123].
(§1) Renca cells (CLS, Eppelheim, Germany) were maintained in vitro by serial passages every 3-4 days. Cultures were performed with RPMI medium medium (RPMI, 10% foetal calf serum, 2 mM L-glutamine, non essential amino acids, 1 mM sodium pyruvate, 20 mM HEPES, 80 μg/mL gentamycin; all of them were purchased from Sigma, St. Louis, Mo., USA) by seeding 5×10^6 cells onto 75 cm^2 culture flasks. Tumour cells collected from 48 hour cultures upon trypsinization (Sigma, St. Louis, Mo., USA) were used as source of Renca cells for the studies described below.
Each isomer was tested at the dose levels of 260 ng administered on days 6, 7 and 14 after tumour inoculation.
The treatments were given by intraperitoneal route (i.p.). The volume inoculated was 0.2 mL/animal. This route was chosen because it is the one described in the original method [Pérez S, et al., 2003, Clinical Cancer Research. 9:5776-5785].
Tumours were established by subcutaneous inoculation in the right hind flank. Mice (Balb/c) were inoculated with 0.2 mL containing 10^5 viable Renca cells. The day of subcutaneous inoculation will be considered Day 0 of the test.
(§2) Mice were observed daily and the tumour size recorded twice a week. This was carried out by measuring two perpendicular diameters (L/W) with a calliper. These measures were used to obtain both tumour surface and volume: Tumour surface=L×W(mm^2) Tumour volume=L×W^2×½(mm^3)
(§3) Results were expressed as single values and/or as the mean±SD or median from each experimental group.
(§4) A case-control study was performed with treated and control mice in order to determine whether differences between isomers and administration of placebo were present. […] The U-test of Mann Withney was chosen for being one of the better known non-parametrical tests, anyway, results for this test are equivalent both to those of Wilcoxon's sum of ranges and Kruskal-Wallis two-groups test.
Due to the high dispersion of data, outlayers (animals beyond percentile 25 or above percentile 75 for tumour surface at day 25) were excluded of the study.

[2] = test system: Ehrlich tumour cells (murine mammary adenocarcinoma); assay: Effect of isomers and BLAS on in vivo tumour growth, Ehrlich tumours (Example 9); parameters: species or system Balb/c mice; settings: for Inhibition of the in vivo growth of Ehrlich tumour cells, in words: 260 ng i.p. days 6, 7 and 14; for Tumour surface, overall values (Mean) / Tumour surface, overall values (Median) / Tumour volume, overall values (Mean) / Tumour volume, overall values (Median): 260 ng/mouse i.p. days 6, 7 and 14; for Differences in Ehrlich tumour growth rate vs. placebo, statistical significance p (Mann-Whitney U test): either in surface or volume
From the text: This assay was made in order to compare the effect of each stereoisomer on in vivo tumour growth in mice with the effect of the mixture of all of them challenged with Ehlrich tumours. The same products, equipment, reagents, doses, vehicle and route of administration as in example 8 were used.
Mice were inoculated with Ehrlich tumour cells. It was described as a murine mammary adenocarcinoma. Ehrlich tumour is a murine mammary carcinoma originally raised in an outbred mouse, and therefore it belongs to the so-called non-specific tumours (Subiza J L, Viñuela J E, Rodriguez R, Gil J, Figueredo M A, de la Concha. E G. Development of splenic natural suppressor (NS) cells in Ehrlich tumor bearing mice. Int J Cancer, 44:307 315; 1989). It may grow across histocompatibility barriers and therefore is not mouse strain specific (Carry P J, Prescott D M, Ogilvie G K. Resistance to Ehrlich ascites tumor in a strain of dystrophic mice. Cancer Res., 39:2139-2140; 1979).
as §1, with “Ehrlich” for “Renca”, “cells” for “cells (CLS, Eppelheim, Germany)”, “aminoacids,” for “amino acids,”, “cultures” for “cultures upon trypsinization (Sigma, St. Louis, Mo., USA)”, “of” for “of Renca”
Tumours were established by subcutaneous inoculation in the right hind flank. Mice (Balb/c) were inoculated with 0.2 mL containing 2×10^5 viable Ehrlich cells. The day of subcutaneous inoculation will be considered Day 0 of the test.
as §2, §3
as §4, with “BLAS or each diferent stereoisomer” for “isomers”

[3] = day 11 after tumour inoculation
[4] = day 14 after tumour inoculation
[5] = day 13 after tumour inoculation
[6] = day 16 after tumour inoculation
[7] = day 20 after tumour inoculation
[8] = day 23 after tumour inoculation
[9] = day 29 after tumour inoculation
[10] = day 31 after tumour inoculation
[11] = day 35 after tumour inoculation
[12] = day 38 after tumour inoculation

## Br.N[C@@]1(C[n+]2ccccc2)C[C@H](C(=O)O)NC1=O.[Br-] (single isomer, unassigned; isomer 2) [isomer 2, 3R,5R-1-(3-Amino-5-carboxy-2-oxopyrrolidin-3-ylmethyl)pyridinium bromide hidrobromide]
[1]; day 0 after tumour inoculation
  Tumour surface, overall values (Mean): 0 mm^2
  Tumour surface, overall values (Median): 0 mm^2
  Tumour volume, overall values (Mean): 0 mm^3
  Tumour volume, overall values (Median): 0 mm^3
[1]; [3]
  Tumour surface, overall values (Median): 0 mm^2
  Tumour volume, overall values (Median): 0 mm^3
[1]; [4]
  Tumour surface, overall values (Median): 9 mm^2
[2]
  Inhibition of the in vivo growth of Ehrlich tumour cells, in words: inhibit the in vivo growth
[2]; day 0 after tumour inoculation
  Tumour surface, overall values (Mean): 0 mm^2
  Tumour surface, overall values (Median): 0 mm^2
  Tumour volume, overall values (Mean): 0 mm^3
  Tumour volume, overall values (Median): 0 mm^3
[2]; day 8 after tumour inoculation
  Tumour surface, overall values (Mean): 6.69 mm^2
  Tumour surface, overall values (Median): 4 mm^2
  Tumour volume, overall values (Mean): 10.97 mm^3
  Tumour volume, overall values (Median): 4 mm^3
[2]; [5]
  Tumour surface, overall values (Mean): 14.81 mm^2
  Tumour surface, overall values (Median): 16 mm^2
  Tumour volume, overall values (Mean): 32.16 mm^3
  Tumour volume, overall values (Median): 32 mm^3
[2]; [6]
  Tumour surface, overall values (Mean): 20.37 mm^2
  Tumour surface, overall values (Median): 20 mm^2
  Tumour volume, overall values (Mean): 51.87 mm^3
  Tumour volume, overall values (Median): 40 mm^3
[2]; [7]
  Tumour surface, overall values (Mean): 28.37 mm^2
  Tumour surface, overall values (Median): 27.5 mm^2
  Tumour volume, overall values (Mean): 81.81 mm^3
  Tumour volume, overall values (Median): 68.75 mm^3
[2]; [8]
  Tumour surface, overall values (Mean): 35.75 mm^2
  Tumour surface, overall values (Median): 33 mm^2
  Tumour volume, overall values (Mean): 113.75 mm^3
  Tumour volume, overall values (Median): 91.5 mm^3
[2]; [9]
  Tumour surface, overall values (Mean): 46.12 mm^2
  Tumour volume, overall values (Mean): 167 mm^3
[2]; [10]
  Tumour surface, overall values (Mean): 50.06 mm^2
  Tumour surface, overall values (Median): 45 mm^2
  Tumour volume, overall values (Mean): 191.91 mm^3
  Tumour volume, overall values (Median): 135 mm^3
[2]; [11]
  Tumour surface, overall values (Mean): 60.25 mm^2
  Tumour surface, overall values (Median): 51 mm^2
  Tumour volume, overall values (Mean): 258.06 mm^3
  Tumour volume, overall values (Median): 153 mm^3
[2]; [12]
  Tumour surface, overall values (Mean): 75.37 mm^2
  Tumour surface, overall values (Median): 71 mm^2
  Tumour volume, overall values (Mean): 372.5 mm^3
  Tumour volume, overall values (Median): 266.5 mm^3
[2]; all days scored after the day 13th
  Differences in Ehrlich tumour growth rate vs. placebo, statistical significance p (Mann-Whitney U test): < 0.05

## Br.N[C@]1(C[n+]2ccccc2)C[C@H](C(=O)O)NC1=O.[Br-] (single isomer, unassigned; isomer 4) [isomer 4, 3S,5R-1-(3-Amino-5-carboxy-2-oxopyrrolidin-3-ylmethyl)pyridinium bromide hidrobromide]
[1]; 260 ng i.p. days 6, 7, 14
  Inhibition of the in vivo growth of the renal cell carcinoma (Renca), in words: inhibit the in vivo growth
  Inhibitory effect on Renca tumour growth compared among isomers, in words: highest inhibitory effect
[1]; day 0 after tumour inoculation
  Tumour surface, overall values (Mean): 0 mm^2
  Tumour surface, overall values (Median): 0 mm^2
  Tumour volume, overall values (Mean): 0 mm^3
  Tumour volume, overall values (Median): 0 mm^3
[1]; [3]
  Tumour surface, overall values (Mean): 0 mm^2
  Tumour surface, overall values (Median): 0 mm^2
  Tumour volume, overall values (Mean): 0 mm^3
  Tumour volume, overall values (Median): 0 mm^3
[1]; [4]
  Tumour surface, overall values (Median): 0 mm^2
  Tumour volume, overall values (Median): 0 mm^3
[1]; day 18 after tumour inoculation
  Tumour surface, overall values (Median): 9 mm^2
[1]; either in surface or volume, all days scored after the day 14th
  Differences in Renca tumour growth rate vs. placebo, statistical significance p (Mann-Whitney U test): < 0.01
[2]
  Inhibition of the in vivo growth of Ehrlich tumour cells, in words: inhibit the in vivo growth
[2]; day 0 after tumour inoculation
  Tumour surface, overall values (Mean): 0 mm^2
  Tumour surface, overall values (Median): 0 mm^2
  Tumour volume, overall values (Mean): 0 mm^3
  Tumour volume, overall values (Median): 0 mm^3
[2]; day 8 after tumour inoculation
  Tumour surface, overall values (Mean): 3.37 mm^2
  Tumour surface, overall values (Median): 0 mm^2
  Tumour volume, overall values (Mean): 5.94 mm^3
  Tumour volume, overall values (Median): 0 mm^3
[2]; [5]
  Tumour surface, overall values (Mean): 12.44 mm^2
  Tumour surface, overall values (Median): 12.5 mm^2
  Tumour volume, overall values (Mean): 26.91 mm^3
  Tumour volume, overall values (Median): 22.75 mm^3
[2]; [6]
  Tumour surface, overall values (Mean): 20.19 mm^2
  Tumour surface, overall values (Median): 18 mm^2
  Tumour volume, overall values (Mean): 50.34 mm^3
  Tumour volume, overall values (Median): 36 mm^3
[2]; [7]
  Tumour surface, overall values (Mean): 31.31 mm^2
  Tumour surface, overall values (Median): 27.5 mm^2
  Tumour volume, overall values (Mean): 95.59 mm^3
  Tumour volume, overall values (Median): 68.75 mm^3
[2]; [8]
  Tumour surface, overall values (Mean): 43.06 mm^2
  Tumour surface, overall values (Median): 39 mm^2
  Tumour volume, overall values (Mean): 156.53 mm^3
  Tumour volume, overall values (Median): 117 mm^3
[2]; [9]
  Tumour surface, overall values (Mean): 52.94 mm^2
  Tumour surface, overall values (Median): 45 mm^2
  Tumour volume, overall values (Mean): 214.91 mm^3
  Tumour volume, overall values (Median): 135 mm^3
[2]; [10]
  Tumour surface, overall values (Mean): 63.12 mm^2
  Tumour surface, overall values (Median): 48.5 mm^2
  Tumour volume, overall values (Mean): 274.94 mm^3
  Tumour volume, overall values (Median): 157.75 mm^3
[2]; [11]
  Tumour surface, overall values (Mean): 76.31 mm^2
  Tumour surface, overall values (Median): 52.5 mm^2
  Tumour volume, overall values (Mean): 379.72 mm^3
  Tumour volume, overall values (Median): 183.75 mm^3
[2]; [12]
  Tumour surface, overall values (Mean): 91.56 mm^2
  Tumour surface, overall values (Median): 68 mm^2
  Tumour volume, overall values (Mean): 504.22 mm^3
  Tumour volume, overall values (Median): 272 mm^3
[2]; all days scored after the day 8th
  Differences in Ehrlich tumour growth rate vs. placebo, statistical significance p (Mann-Whitney U test): < 0.05
[2]; surface, day 35th
  Ehrlich tumour growth vs. placebo, tendency p: 0.061
[2]; surface, day 38th
  Ehrlich tumour growth vs. placebo, tendency p: 0.08
[2]; volume, days 35th and 38th (both of them)
  Ehrlich tumour growth vs. placebo, tendency p: 0.102
